Patent US11357766B2, “Compositions and methods for treating cancer” (Texas Tech University System, priority 2017, dated 2022)

Tested on: pancreatic cancer cells
Assay: Glycolysis, mitochondrial respiration and marker expression in pancreatic cancer cells
Assay type: cell-based

CC(C)COc1ccc(CNC(=O)N(Cc2ccc(F)cc2)C2CCN(C)CC2)cc1 [pimavanserin, N-(4-fluorophenylmethyl)-N-(1-methylpiperidin-4-yl)-N′-(4-(2-methylpropyloxy)phenylmethyl)carbamide]
cleavage of caspase3 and PARP (Western blot): increasing | expression of main metabolic markers Hexokinase-1, LDH-A and FOXM1 (Western blot): inhibits | glycolysis and mitochondrial respiration (pancreatic cancer cells): inhibits | key oncogenic markers pAkt(S473), pSTAT3 (Y705 & S727), β-catenin, Cyclin D1, Mc1-1, HER2, EGFR, VEGFR2, c-Myc, CD44, Oct-4 (pancreatic cancer cells): inhibiting
